What all share (assay): relative viability (nuclei count vs DMSO), 5 days (fraction); higher = more cells survive
Compound in assay [1]: O=C(C[C@H]1NCCC[C@@H]1O)Cn1cnc2cc(Br)c(Cl)cc2c1=O (racemic) [Halofuginone] + Nc1nc2[nH]cc(CCc3ccc(C(=O)N[C@@H](CCC(=O)O)C(=O)O)cc3)c2c(=O)[nH]1 [Pemetrexed] (partner 0.2 µM)
In short, it runs like this: (§1)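 Relative viability was taken as the ratio of nuclei in treated wells to nuclei in vehicle wells. Lung cancer cell lines in 1536-well plates received compounds by pin tool one day after seeding, either one drug alone or a fixed anchor-drug dose plus five library-drug doses (not always all listed) in √10 steps. Nuclei were counted on 4× images after 5 days of treatment, and values are medians of duplicate plates.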

Compound in the assay “Decitabine + Dasatinib”: Nc1ncn([C@H]2C[C@H](O)[C@@H](CO)O2)c(=O)n1 [Decitabine] + Cc1nc(Nc2ncc(C(=O)Nc3c(C)cccc3Cl)s2)cc(N2CCN(CCO)CC2)n1 [Dasatinib] (partner 0.075 µM)
Put shortly:
as §1

Compound in the assay “Cediranib + Luminespib”: COc1cc2c(Oc3ccc4[nH]c(C)cc4c3F)ncnc2cc1OCCCN1CCCC1 [Cediranib] + CCNC(=O)c1noc(-c2cc(C(C)C)c(O)cc2O)c1-c1ccc(CN2CCOCC2)cc1 [Luminespib] (partner 0.01 µM)
In short, it runs like this:
as §1

Compound in the assay “Cediranib + Palbociclib”: COc1cc2c(Oc3ccc4[nH]c(C)cc4c3F)ncnc2cc1OCCCN1CCCC1 [Cediranib] + CC(=O)c1c(C)c2cnc(Nc3ccc(N4CCNCC4)cn3)nc2n(C2CCCC2)c1=O [Palbociclib] (partner 0.5 µM)
In short, it runs like this: as §1

As to PC-14, the relative viability in assay [1] (first compound 0.001 µM) amounted to 0.153; in assay [1] (first compound 0.003162 µM) it was 0.148; in assay [1] (first compound 0.01 µM), 0.143; in assay [1] (first compound 0.03162 µM), 0.163; in assay [1] (first compound 0.1 µM), 0.164; in the assay with Decitabine + Dasatinib (first compound 0.04 µM), 0.0322. Moreover, the relative viability in the assay with Decitabine + Dasatinib (first compound 0.1265 µM) was 0.142; with Decitabine + Dasatinib (first compound 0.4 µM), 0.0565; in the assay with Decitabine + Dasatinib (first compound 1.265 µM), 0.0706; in the assay with Decitabine + Dasatinib (first compound 4 µM), 0.0858; with Cediranib + Luminespib (first compound 0.04 µM) it was 0.137; with Cediranib + Luminespib (first compound 0.1265 µM), 0.16. Besides, the relative viability with Cediranib + Luminespib (first compound 0.4 µM) turned out to be 0.154; in the assay with Cediranib + Luminespib (first compound 1.265 µM), 0.108; in the assay with Cediranib + Luminespib (first compound 4 µM) it was 0.119; in the assay with Cediranib + Palbociclib (first compound 0.04 µM) it was 0.601; with Cediranib + Palbociclib (first compound 0.1265 µM), 0.627; with Cediranib + Palbociclib (first compound 0.4 µM) it was 0.487. Also, the relative viability with Cediranib + Palbociclib (first compound 1.265 µM) is 0.439; with Cediranib + Palbociclib (first compound 4 µM), 0.328.

In the case of RERF-LC-KJ, the relative viability was found to be 0.452 in assay [1] (first compound 0.001 µM); 0.45 in assay [1] (first compound 0.003162 µM); 0.434 in assay [1] (first compound 0.01 µM); 0.454 in assay [1] (first compound 0.03162 µM); 0.461 in assay [1] (first compound 0.1 µM); 0.703 with Decitabine + Dasatinib (first compound 0.04 µM). The relative viability in the assay with Decitabine + Dasatinib (first compound 0.1265 µM) is 0.741; with Decitabine + Dasatinib (first compound 1.265 µM), 0.465; in the assay with Decitabine + Dasatinib (first compound 4 µM) it was 0.485; with Cediranib + Luminespib (first compound 0.04 µM), 1.39; with Cediranib + Luminespib (first compound 0.1265 µM), 1.15; with Cediranib + Luminespib (first compound 0.4 µM), 1.27. The relative viability turned out to be 1.25 in the assay with Cediranib + Luminespib (first compound 1.265 µM); 1.25 with Cediranib + Luminespib (first compound 4 µM); 1.15 with Cediranib + Palbociclib (first compound 0.04 µM); 1.02 in the assay with Cediranib + Palbociclib (first compound 0.1265 µM); 1 with Cediranib + Palbociclib (first compound 0.4 µM); 1.15 in the assay with Cediranib + Palbociclib (first compound 1.265 µM). Further, in the assay with Cediranib + Palbociclib (first compound 4 µM), the relative viability turned out to be 1.13.

Regarding SK-LU-1, the relative viability worked out at 1.03 in assay [1] (first compound 0.001 µM); 0.981 in assay [1] (first compound 0.003162 µM); 0.912 in assay [1] (first compound 0.01 µM); 0.921 in assay [1] (first compound 0.03162 µM); 0.409 in assay [1] (first compound 0.1 µM); 0.188 in the assay with Decitabine + Dasatinib (first compound 0.04 µM). The relative viability with Decitabine + Dasatinib (first compound 0.1265 µM) was 0.166; with Decitabine + Dasatinib (first compound 0.4 µM), 0.173; with Decitabine + Dasatinib (first compound 1.265 µM), 0.154; with Decitabine + Dasatinib (first compound 4 µM), 0.185; in the assay with Cediranib + Luminespib (first compound 0.04 µM), 0.203; with Cediranib + Luminespib (first compound 0.1265 µM), 0.195. The relative viability in the assay with Cediranib + Luminespib (first compound 0.4 µM) was determined as 0.183; with Cediranib + Luminespib (first compound 1.265 µM), 0.203; with Cediranib + Luminespib (first compound 4 µM) it was 0.194; in the assay with Cediranib + Palbociclib (first compound 0.04 µM) it was 0.434; with Cediranib + Palbociclib (first compound 0.1265 µM), 0.441; in the assay with Cediranib + Palbociclib (first compound 0.4 µM) it was 0.385. Moreover, the relative viability in the assay with Cediranib + Palbociclib (first compound 1.265 µM) turned out to be 0.375; with Cediranib + Palbociclib (first compound 4 µM), 0.383.

With SK-MES-1, the relative viability in assay [1] (first compound 0.001 µM) amounted to 1.07; in assay [1] (first compound 0.003162 µM), 0.983; in assay [1] (first compound 0.01 µM) it was 0.877; in assay [1] (first compound 0.03162 µM) it was 0.74; in assay [1] (first compound 0.1 µM) it was 0.253; with Decitabine + Dasatinib (first compound 0.04 µM) it was 0.333. The relative viability worked out at 0.234 with Decitabine + Dasatinib (first compound 0.1265 µM); 0.161 in the assay with Decitabine + Dasatinib (first compound 0.4 µM); 0.135 in the assay with Decitabine + Dasatinib (first compound 1.265 µM); 0.158 with Decitabine + Dasatinib (first compound 4 µM); 0.797 in the assay with Cediranib + Luminespib (first compound 0.04 µM); 0.869 with Cediranib + Luminespib (first compound 0.1265 µM). In addition, the relative viability was found to be 0.9 with Cediranib + Luminespib (first compound 0.4 µM); 0.833 in the assay with Cediranib + Luminespib (first compound 1.265 µM); 0.86 with Cediranib + Luminespib (first compound 4 µM); 0.304 in the assay with Cediranib + Palbociclib (first compound 0.04 µM); 0.311 with Cediranib + Palbociclib (first compound 0.1265 µM); 0.328 with Cediranib + Palbociclib (first compound 0.4 µM). Also, the relative viability with Cediranib + Palbociclib (first compound 1.265 µM) turned out to be 0.283; with Cediranib + Palbociclib (first compound 4 µM), 0.324.

SW 900: the relative viability in assay [1] (first compound 0.001 µM) is 0.483; in assay [1] (first compound 0.003162 µM), 0.505; in assay [1] (first compound 0.03162 µM), 0.432; in assay [1] (first compound 0.1 µM), 0.445; with Decitabine + Dasatinib (first compound 0.04 µM), 0.35; with Decitabine + Dasatinib (first compound 0.1265 µM) it was 0.405. Also, the relative viability is 0.387 with Decitabine + Dasatinib (first compound 0.4 µM); 0.292 with Decitabine + Dasatinib (first compound 1.265 µM); 0.163 in the assay with Decitabine + Dasatinib (first compound 4 µM); 0.167 with Cediranib + Luminespib (first compound 0.04 µM); 0.186 in the assay with Cediranib + Luminespib (first compound 0.1265 µM); 0.195 with Cediranib + Luminespib (first compound 0.4 µM). The relative viability with Cediranib + Luminespib (first compound 1.265 µM) was determined as 0.188; with Cediranib + Luminespib (first compound 4 µM), 0.169; with Cediranib + Palbociclib (first compound 0.04 µM), 0.569; with Cediranib + Palbociclib (first compound 0.1265 µM), 0.677; with Cediranib + Palbociclib (first compound 0.4 µM), 0.552; with Cediranib + Palbociclib (first compound 1.265 µM), 0.575. In addition, the relative viability with Cediranib + Palbociclib (first compound 4 µM) stood at 0.594.

For the cell line SW 1573, the relative viability in assay [1] (first compound 0.001 µM) is 0.914; in assay [1] (first compound 0.01 µM) it was 0.775; in assay [1] (first compound 0.03162 µM) it was 0.574; in assay [1] (first compound 0.1 µM), 0.208; in the assay with Decitabine + Dasatinib (first compound 0.04 µM), 0.458; with Decitabine + Dasatinib (first compound 0.1265 µM), 0.433. Moreover, the relative viability in the assay with Decitabine + Dasatinib (first compound 0.4 µM) came out at 0.416; in the assay with Decitabine + Dasatinib (first compound 1.265 µM) it was 0.153; with Decitabine + Dasatinib (first compound 4 µM), 0.163; with Cediranib + Luminespib (first compound 0.04 µM) it was 0.347; in the assay with Cediranib + Luminespib (first compound 0.1265 µM), 0.324; in the assay with Cediranib + Luminespib (first compound 0.4 µM), 0.256. Moreover, the relative viability with Cediranib + Luminespib (first compound 1.265 µM) came to 0.21; with Cediranib + Luminespib (first compound 4 µM) it was 0.24; with Cediranib + Palbociclib (first compound 0.04 µM), 0.362; with Cediranib + Palbociclib (first compound 0.1265 µM), 0.412; in the assay with Cediranib + Palbociclib (first compound 0.4 µM), 0.394; in the assay with Cediranib + Palbociclib (first compound 1.265 µM) it was 0.389. For the same cell line, the relative viability in the assay with Cediranib + Palbociclib (first compound 4 µM) came to 0.382.

For the origin of these results see the supplement of paper PMC10307832.
